Measured values published in PMC8213057, “Targeting ALK2: An Open Science Approach to Developing Therapeutics for the Treatment of Diffuse Intrinsic Pontine Glioma” (Journal of Medicinal Chemistry, 2020).

Assays:
Conditions in all cases: 1 μM; Run 1, Run 2
CDK2/cyclin A = CDK2/cyclin A (Homo sapiens, UniProt P24941)
FGFR4 = FGFR4 (Homo sapiens, UniProt P22455)
BRSK2 = target: T1, BRSK2 (Homo sapiens, UniProt Q8IWQ3)
T1 sequence (Q8IWQ3 1-736): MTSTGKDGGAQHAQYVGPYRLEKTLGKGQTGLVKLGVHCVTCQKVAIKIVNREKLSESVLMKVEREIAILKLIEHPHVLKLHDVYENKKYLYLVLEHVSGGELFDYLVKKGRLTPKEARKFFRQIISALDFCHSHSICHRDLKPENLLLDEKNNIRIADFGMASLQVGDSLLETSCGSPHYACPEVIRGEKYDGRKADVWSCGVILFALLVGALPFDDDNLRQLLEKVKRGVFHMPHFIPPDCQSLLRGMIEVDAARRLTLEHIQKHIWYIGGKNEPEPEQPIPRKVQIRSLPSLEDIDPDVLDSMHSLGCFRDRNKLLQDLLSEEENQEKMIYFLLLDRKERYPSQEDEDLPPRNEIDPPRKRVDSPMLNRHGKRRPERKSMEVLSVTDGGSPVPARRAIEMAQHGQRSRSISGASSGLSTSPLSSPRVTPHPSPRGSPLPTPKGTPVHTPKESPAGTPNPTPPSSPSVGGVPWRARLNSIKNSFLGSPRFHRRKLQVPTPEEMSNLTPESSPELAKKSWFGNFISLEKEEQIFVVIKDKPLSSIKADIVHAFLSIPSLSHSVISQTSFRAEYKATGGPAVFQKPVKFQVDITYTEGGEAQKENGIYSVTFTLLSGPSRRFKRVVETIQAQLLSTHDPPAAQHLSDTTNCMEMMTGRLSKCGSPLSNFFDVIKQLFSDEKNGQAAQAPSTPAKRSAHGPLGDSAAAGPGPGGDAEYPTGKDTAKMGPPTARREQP

LYN B = LYN B (Homo sapiens, UniProt P07948)
Sequence of LYN B (P07948 1-491 isoform P07948-2): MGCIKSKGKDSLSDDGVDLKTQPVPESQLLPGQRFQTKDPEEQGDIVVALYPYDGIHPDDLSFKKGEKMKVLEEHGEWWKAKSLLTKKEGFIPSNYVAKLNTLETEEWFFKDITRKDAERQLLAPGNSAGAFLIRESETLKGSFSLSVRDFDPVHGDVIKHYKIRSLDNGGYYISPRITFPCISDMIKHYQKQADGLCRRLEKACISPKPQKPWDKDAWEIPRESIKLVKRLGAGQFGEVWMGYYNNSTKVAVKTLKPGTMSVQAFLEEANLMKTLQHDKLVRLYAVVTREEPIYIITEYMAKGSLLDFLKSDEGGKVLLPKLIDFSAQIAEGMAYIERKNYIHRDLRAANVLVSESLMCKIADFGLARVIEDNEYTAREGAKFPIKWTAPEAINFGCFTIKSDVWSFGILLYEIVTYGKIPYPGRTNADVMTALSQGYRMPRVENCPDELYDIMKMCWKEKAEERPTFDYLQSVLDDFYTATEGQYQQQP

DCAMKL2 = target: T2, DCAMKL2 (Homo sapiens, UniProt Q8N568)
T2 sequence (Q8N568 1-766): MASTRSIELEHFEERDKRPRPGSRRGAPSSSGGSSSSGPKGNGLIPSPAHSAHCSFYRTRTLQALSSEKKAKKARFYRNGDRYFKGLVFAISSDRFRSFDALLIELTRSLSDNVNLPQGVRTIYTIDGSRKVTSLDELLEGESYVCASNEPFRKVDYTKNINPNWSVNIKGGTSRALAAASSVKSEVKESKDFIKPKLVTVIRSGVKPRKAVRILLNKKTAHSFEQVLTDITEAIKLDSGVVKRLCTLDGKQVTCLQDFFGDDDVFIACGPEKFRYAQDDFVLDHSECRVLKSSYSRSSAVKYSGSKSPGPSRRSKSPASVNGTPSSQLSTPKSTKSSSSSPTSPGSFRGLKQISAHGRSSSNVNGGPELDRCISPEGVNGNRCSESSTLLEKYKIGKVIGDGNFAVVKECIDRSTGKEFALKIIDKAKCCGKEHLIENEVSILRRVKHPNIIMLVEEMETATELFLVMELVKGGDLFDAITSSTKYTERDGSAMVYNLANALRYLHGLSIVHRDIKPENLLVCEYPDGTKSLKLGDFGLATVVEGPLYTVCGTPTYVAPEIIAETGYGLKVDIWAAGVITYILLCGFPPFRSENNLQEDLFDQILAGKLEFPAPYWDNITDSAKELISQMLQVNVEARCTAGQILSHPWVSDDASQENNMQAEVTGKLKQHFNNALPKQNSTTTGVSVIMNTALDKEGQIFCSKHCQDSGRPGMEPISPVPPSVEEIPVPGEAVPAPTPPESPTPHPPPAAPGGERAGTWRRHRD

TESK2 = TESK2 (Homo sapiens, UniProt Q96S53)
Sequence of TESK2 (Q96S53 whole entry): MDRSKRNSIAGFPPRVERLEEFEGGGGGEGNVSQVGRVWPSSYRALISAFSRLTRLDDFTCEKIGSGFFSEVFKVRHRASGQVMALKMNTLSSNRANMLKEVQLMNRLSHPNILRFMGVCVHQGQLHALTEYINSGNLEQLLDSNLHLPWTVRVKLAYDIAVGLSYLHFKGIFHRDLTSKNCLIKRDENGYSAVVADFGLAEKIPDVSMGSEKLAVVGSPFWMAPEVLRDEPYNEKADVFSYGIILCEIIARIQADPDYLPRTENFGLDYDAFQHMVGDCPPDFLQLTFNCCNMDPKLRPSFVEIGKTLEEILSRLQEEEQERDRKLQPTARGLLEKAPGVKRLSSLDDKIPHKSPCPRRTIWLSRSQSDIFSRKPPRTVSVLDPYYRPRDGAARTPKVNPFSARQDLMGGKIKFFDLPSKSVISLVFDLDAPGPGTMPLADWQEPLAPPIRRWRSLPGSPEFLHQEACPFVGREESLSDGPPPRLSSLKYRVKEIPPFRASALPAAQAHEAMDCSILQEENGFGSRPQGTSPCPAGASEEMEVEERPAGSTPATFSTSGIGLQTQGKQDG

CDK7/cyclin H = CDK7/cyclin H (Homo sapiens, UniProt P50613)
Sequence of CDK7/cyclin H (P50613 whole entry): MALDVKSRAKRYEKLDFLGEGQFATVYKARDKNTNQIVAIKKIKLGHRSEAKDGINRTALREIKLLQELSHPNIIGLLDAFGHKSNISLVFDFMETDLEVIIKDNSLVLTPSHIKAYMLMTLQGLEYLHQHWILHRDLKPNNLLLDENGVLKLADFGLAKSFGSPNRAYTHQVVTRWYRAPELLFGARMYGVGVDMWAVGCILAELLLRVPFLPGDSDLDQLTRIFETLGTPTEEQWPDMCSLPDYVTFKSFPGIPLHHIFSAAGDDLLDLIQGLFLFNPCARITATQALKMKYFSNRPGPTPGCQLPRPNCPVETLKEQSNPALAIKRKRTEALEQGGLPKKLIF
Sequence of CDK7/cyclin H (P51946 whole entry partner): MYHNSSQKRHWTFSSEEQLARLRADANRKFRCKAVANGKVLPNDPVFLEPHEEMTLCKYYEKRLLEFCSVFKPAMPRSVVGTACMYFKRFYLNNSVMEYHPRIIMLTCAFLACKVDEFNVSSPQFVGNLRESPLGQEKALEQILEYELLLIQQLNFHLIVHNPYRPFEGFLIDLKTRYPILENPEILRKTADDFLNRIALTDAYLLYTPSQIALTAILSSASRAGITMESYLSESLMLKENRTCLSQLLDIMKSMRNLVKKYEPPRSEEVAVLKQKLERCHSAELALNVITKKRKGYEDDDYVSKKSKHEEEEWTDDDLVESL
Sequence of CDK7/cyclin H (P51948 whole entry partner): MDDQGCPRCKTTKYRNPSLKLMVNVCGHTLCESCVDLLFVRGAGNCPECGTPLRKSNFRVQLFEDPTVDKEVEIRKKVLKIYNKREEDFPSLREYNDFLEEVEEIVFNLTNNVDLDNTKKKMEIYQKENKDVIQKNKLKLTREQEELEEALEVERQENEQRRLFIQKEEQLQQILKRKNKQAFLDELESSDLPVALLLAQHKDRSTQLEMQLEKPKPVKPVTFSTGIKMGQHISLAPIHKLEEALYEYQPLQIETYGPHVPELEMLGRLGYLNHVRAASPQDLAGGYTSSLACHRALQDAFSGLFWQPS

LATS1 = target: T3, LATS1 (Homo sapiens, UniProt O95835)
T3 sequence (O95835 1-1130): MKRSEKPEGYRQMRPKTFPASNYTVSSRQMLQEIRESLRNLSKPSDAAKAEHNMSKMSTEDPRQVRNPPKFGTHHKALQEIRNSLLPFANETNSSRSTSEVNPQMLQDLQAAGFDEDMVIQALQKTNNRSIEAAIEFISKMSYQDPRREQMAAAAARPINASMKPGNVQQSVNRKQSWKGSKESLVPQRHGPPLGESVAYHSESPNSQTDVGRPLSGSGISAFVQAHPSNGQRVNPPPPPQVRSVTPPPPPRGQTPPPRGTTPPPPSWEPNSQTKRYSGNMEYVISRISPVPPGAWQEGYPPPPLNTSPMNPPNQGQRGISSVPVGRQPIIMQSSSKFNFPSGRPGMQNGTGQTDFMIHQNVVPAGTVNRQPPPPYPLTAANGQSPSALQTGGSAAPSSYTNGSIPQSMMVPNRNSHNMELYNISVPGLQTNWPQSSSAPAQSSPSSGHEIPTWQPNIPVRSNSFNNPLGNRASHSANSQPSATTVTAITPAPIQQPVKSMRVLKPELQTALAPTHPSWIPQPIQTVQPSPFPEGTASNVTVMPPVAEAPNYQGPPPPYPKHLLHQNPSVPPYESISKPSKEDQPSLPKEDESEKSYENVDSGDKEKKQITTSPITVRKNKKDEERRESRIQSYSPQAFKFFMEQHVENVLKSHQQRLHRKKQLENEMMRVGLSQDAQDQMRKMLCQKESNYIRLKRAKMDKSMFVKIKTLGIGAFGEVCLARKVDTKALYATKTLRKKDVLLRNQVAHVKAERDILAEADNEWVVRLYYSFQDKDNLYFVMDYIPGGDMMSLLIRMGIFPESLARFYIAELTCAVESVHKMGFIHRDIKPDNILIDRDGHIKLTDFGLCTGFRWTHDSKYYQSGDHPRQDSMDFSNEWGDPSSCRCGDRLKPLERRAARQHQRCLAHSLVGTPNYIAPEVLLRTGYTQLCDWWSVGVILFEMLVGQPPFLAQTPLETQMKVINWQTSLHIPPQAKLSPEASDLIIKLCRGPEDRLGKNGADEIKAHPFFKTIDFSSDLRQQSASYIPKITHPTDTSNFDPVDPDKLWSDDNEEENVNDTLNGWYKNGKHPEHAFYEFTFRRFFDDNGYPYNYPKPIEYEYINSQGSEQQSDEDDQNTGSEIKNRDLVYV

Sequence of FGFR4 (P22455 22-802): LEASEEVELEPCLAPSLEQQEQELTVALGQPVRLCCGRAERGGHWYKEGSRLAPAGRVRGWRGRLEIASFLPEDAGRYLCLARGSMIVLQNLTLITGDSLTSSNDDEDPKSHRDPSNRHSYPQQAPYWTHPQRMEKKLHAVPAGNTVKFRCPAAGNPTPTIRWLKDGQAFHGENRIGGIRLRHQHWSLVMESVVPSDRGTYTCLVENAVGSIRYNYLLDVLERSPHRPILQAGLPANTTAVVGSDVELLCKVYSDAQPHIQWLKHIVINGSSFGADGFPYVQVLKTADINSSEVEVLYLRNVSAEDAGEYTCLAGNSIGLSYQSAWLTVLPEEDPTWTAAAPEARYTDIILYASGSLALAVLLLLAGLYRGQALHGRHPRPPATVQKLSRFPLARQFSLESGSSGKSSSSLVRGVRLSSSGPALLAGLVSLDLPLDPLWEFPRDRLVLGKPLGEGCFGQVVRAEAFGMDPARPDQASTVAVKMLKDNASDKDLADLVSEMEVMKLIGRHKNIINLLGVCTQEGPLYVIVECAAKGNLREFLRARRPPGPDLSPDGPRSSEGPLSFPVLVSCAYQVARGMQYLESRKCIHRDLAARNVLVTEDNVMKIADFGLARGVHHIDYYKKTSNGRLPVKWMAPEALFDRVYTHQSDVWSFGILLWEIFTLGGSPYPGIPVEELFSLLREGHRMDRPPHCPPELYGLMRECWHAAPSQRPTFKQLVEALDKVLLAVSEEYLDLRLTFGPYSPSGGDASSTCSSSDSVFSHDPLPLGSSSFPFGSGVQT

| Compound | % enzyme activity (CDK2/cyclin A) [%] | % enzyme activity (FGFR4) [%] | % enzyme activity (BRSK2) [%] | % enzyme activity (LYN B) [%] | % enzyme activity (DCAMKL2) [%] | % enzyme activity (TESK2) [%] | % enzyme activity (CDK7/cyclin H) [%] | % enzyme activity (LATS1) [%] |
| --- | --- | --- | --- | --- | --- | --- | --- | --- |
| COc1cc(-c2cncc(-c3ccc(N4CCN(C)CC4)cc3)c2C)cc(F)c1C(N)=O [Compound 26a, 2-Fluoro-6-methoxy-4-(4-methyl-5-(4-(4-methylpiperazin-1-yl)phenyl)pyridin-3-yl)benzamide] | 97.95 | 97.61 | 60.95 | 96.56 | 62.07 | 93.89 | 93.27 | 97.31 |
| COc1cc(-c2cncc(-c3ccc(N4C[C@@H](C)N(C)[C@@H](C)C4)cc3)c2C)cc(F)c1C(N)=O [Compound 26c, 2-Fluoro-6-methoxy-4-(4-methyl-5-(4-((3R,5S)-3,4,5-trimethylpiperazin-1-yl)phenyl)pyridin-3-yl)benzamide] | 98.65 | 98.99 | 76.84 | 97.80 | 82.24 | 92.03 | 95.50 | 100.53 |
